Experimental data taken from patent publication US4081531A, “Antibiotic mimosamycin” (priority 1975, dated 1978).

How the values were obtained:
gram-positive bacteria = assay: Antibacterial activity against gram-positive bacteria; type: cell-based; conditions: chlorocarcins, summary of Table 5
gram-negative bacteria = assay: Antibacterial activity against gram-negative bacteria; type: cell-based; conditions: chlorocarcins, summary of Table 5
[1] = Tolerability in mice, intravenous injection; type: in vivo; conditions: mice
Experimental: Remarks: Nutrient agar, 37° C, 48 hours for m. smegmatis. Sauton's liquid medium, 37° C, 4 weeks for other 3 strains. The strains SMR and Matsudo resistant to streptomycin at 1000 μg/ml or higher. Mice (18 - 20 g.) tolerated intravenous injection of 50 mg./kg. of mimosamycin.
(A) and 250 mg./kg.(B and C), respectively.

Solubility = type: physicochemical
[2] = system: Staphylococcus aureus 209 P; assay: Antimicrobial spectrum (MIC); type: cell-based; conditions: 1% glucose nutrient agar, 37° C, 24 or 48 hours
[3] = system: Staphylococcus aureus Smith; assay: Antimicrobial spectrum (MIC); type: cell-based; conditions: 1% glucose nutrient agar, 37° C, 24 or 48 hours
Staphylococcus albus = assay: Antimicrobial spectrum (MIC); type: cell-based; conditions: 1% glucose nutrient agar, 37° C, 24 or 48 hours
Staphylococcus citreus = assay: Antimicrobial spectrum (MIC); type: cell-based; conditions: 1% glucose nutrient agar, 37° C, 24 or 48 hours
[4] = system: Streptococcus hemolyticus Coock; assay: Antimicrobial spectrum (MIC); type: cell-based; conditions: blood agar, 37° C, 24 or 48 hours
[5] = system: Streptococcus hemolyticus 090R; assay: Antimicrobial spectrum (MIC); type: cell-based; conditions: blood agar, 37° C, 24 or 48 hours
Streptococcus salivarius = assay: Antimicrobial spectrum (MIC); type: cell-based; conditions: 1% glucose nutrient agar, 37° C, 24 or 48 hours
Streptococcus faecalis = assay: Antimicrobial spectrum (MIC); type: cell-based; conditions: 1% glucose nutrient agar, 37° C, 24 or 48 hours
[6] = system: Bacillus subtilis PCI 219; assay: Antimicrobial spectrum (MIC); type: cell-based; conditions: 1% glucose nutrient agar, 37° C, 24 or 48 hours
Bacillus cereus = assay: Antimicrobial spectrum (MIC); type: cell-based; conditions: 1% glucose nutrient agar, 37° C, 24 or 48 hours
[7] = system: Corynebacterium diphtheriae; assay: Antimicrobial spectrum (MIC); type: cell-based; conditions: 1% glucose nutrient agar, 37° C, 24 or 48 hours
Corynebacterium xerosis = assay: Antimicrobial spectrum (MIC); type: cell-based; conditions: 1% glucose nutrient agar, 37° C, 24 or 48 hours
Lactobacillus arabinosus = assay: Antimicrobial spectrum (MIC); type: cell-based; conditions: 1% glucose nutrient agar, 37° C, 24 or 48 hours
Nocardia asteoides = assay: Antimicrobial spectrum (MIC); type: cell-based; conditions: 37° C, 24 or 48 hours
[8] = system: Mycobacterium smegmatis ATCC 607; assay: Antimicrobial spectrum (MIC); type: cell-based; conditions: 3% glycerin nutrient agar, 37° C, 24 or 48 hours
Mycobacterium phlei = assay: Antimicrobial spectrum (MIC); type: cell-based; conditions: 3% glycerin nutrient agar, 37° C, 24 or 48 hours
Mycobacterium avium = assay: Antimicrobial spectrum (MIC); type: cell-based; conditions: 3% glycerin nutrient agar, 37° C, 24 or 48 hours
Escherichia coli = assay: Antimicrobial spectrum (MIC); type: cell-based; conditions: 1% glucose nutrient agar, 37° C, 24 or 48 hours
Shigella dysenteriae = assay: Antimicrobial spectrum (MIC); type: cell-based; conditions: 1% glucose nutrient agar, 37° C, 24 or 48 hours
Salmonella typhimurium = assay: Antimicrobial spectrum (MIC); type: cell-based; conditions: 1% glucose nutrient agar, 37° C, 24 or 48 hours
Klebsiella pneumonaie = assay: Antimicrobial spectrum (MIC); type: cell-based; conditions: 1% glucose nutrient agar, 37° C, 24 or 48 hours
Serratia marcescens = assay: Antimicrobial spectrum (MIC); type: cell-based; conditions: 1% glucose nutrient agar, 37° C, 24 or 48 hours
Pseudomonas aeruginosa = assay: Antimicrobial spectrum (MIC); type: cell-based; conditions: 1% glucose nutrient agar, 37° C, 24 or 48 hours
Brucella abortus = type: cell-based; conditions: blood agar, 37° C, 24 or 48 hours
Candida albicans = assay: Antimicrobial spectrum (MIC); type: cell-based; conditions: Sabouraud dextrose agar, 27° C, 48 hours
Saccharomyces cerevisiae = assay: Antimicrobial spectrum (MIC); type: cell-based; conditions: Sabouraud dextrose agar, 27° C, 48 hours
Tolura rubra = assay: Antimicrobial spectrum (MIC); type: cell-based; conditions: Sabouraud dextrose agar, 27° C, 48 hours
Penicillium glaucum = assay: Antimicrobial spectrum (MIC); type: cell-based; conditions: Sabouraud dextrose agar, 27° C, 48 hours
Aspergillus niger = assay: Antimicrobial spectrum (MIC); type: cell-based; conditions: Sabouraud dextrose agar, 27° C, 48 hours
Aspergillus oryzae = assay: Antimicrobial spectrum (MIC); type: cell-based; conditions: Sabouraud dextrose agar, 27° C, 48 hours
Mucor mucedo = assay: Antimicrobial spectrum (MIC); type: cell-based; conditions: Sabouraud dextrose agar, 27° C, 48 hours
[9] = system: Trichophyton mentagrophytes; assay: Antimicrobial spectrum (MIC); type: cell-based; conditions: Sabouraud dextrose agar, 27° C, 72 hours

chlorocarcin A
antibacterial activity against gram-positive bacteria (gram-positive bacteria): mainly show an antibacterial activity
antibacterial activity against most gram-negative bacteria (gram-negative bacteria): little antibacterial activity
toxicity [1]: relatively low toxicity
Solubility (Solubility; Ethyl ether, esters, chloroform, acetone, alcohols, 0.1N HCl): Easily soluble
Solubility (Solubility; Water): Insoluble
Solubility (Solubility; n-hexane, 0.1N NaOH): Sparingly soluble
MIC [2]: 0.1 µg/mL
MIC [3]: 0.02 µg/mL
MIC (Staphylococcus albus): 0.1 µg/mL
MIC (Staphylococcus citreus): 0.1 µg/mL
MIC [4]: 6.25 µg/mL
MIC [5]: 50 µg/mL
MIC (Streptococcus salivarius): 6.25 µg/mL
MIC (Streptococcus faecalis): 25 µg/mL
MIC [6]: 0.2 µg/mL
MIC (Bacillus cereus): 50 µg/mL
MIC [7]: 0.003 µg/mL
MIC (Corynebacterium xerosis): 0.003 µg/mL
MIC (Lactobacillus arabinosus): 12.5 µg/mL
MIC (Nocardia asteoides): 25 µg/mL
MIC [8]: 100 µg/mL
MIC (Mycobacterium phlei): 100 µg/mL
MIC (Mycobacterium avium): 100 µg/mL
MIC (Escherichia coli): > 100 µg/mL
MIC (Shigella dysenteriae): > 100 µg/mL
MIC (Salmonella typhimurium): > 100 µg/mL
MIC (Klebsiella pneumonaie): 100 µg/mL
MIC (Serratia marcescens): > 100 µg/mL
MIC (Pseudomonas aeruginosa): > 100 µg/mL
MIC (Brucella abortus): > 100 µg/mL
MIC (Candida albicans): > 100 µg/mL
MIC (Saccharomyces cerevisiae): > 100 µg/mL
MIC (Tolura rubra): > 100 µg/mL
MIC (Penicillium glaucum): > 100 µg/mL
MIC (Aspergillus niger): > 100 µg/mL
MIC (Aspergillus oryzae): > 100 µg/mL
MIC (Mucor mucedo): > 100 µg/mL
MIC [9]: 100 µg/mL

chlorocarcin C
antibacterial activity against gram-positive bacteria (gram-positive bacteria): mainly show an antibacterial activity
antibacterial activity against most gram-negative bacteria (gram-negative bacteria): little antibacterial activity
toxicity [1]: relatively low toxicity
Solubility (Solubility; Lower alcohols, chloroform, esters, acetone, benzene, ethyl ether): Easily soluble
Solubility (Solubility; Water): Insoluble
Solubility (Solubility; n-hexane): Sparingly soluble
MIC [2]: 12.5 µg/mL
MIC [3]: 12.5 µg/mL
MIC (Staphylococcus albus): 50 µg/mL
MIC (Staphylococcus citreus): 25 µg/mL
MIC [4]: 6.25 µg/mL
MIC [5]: 100 µg/mL
MIC (Streptococcus salivarius): 50 µg/mL
MIC (Streptococcus faecalis): > 100 µg/mL
MIC [6]: 25 µg/mL
MIC (Bacillus cereus): 50 µg/mL
MIC [7]: 0.05 µg/mL
MIC (Corynebacterium xerosis): 0.39 µg/mL
MIC (Lactobacillus arabinosus): 50 µg/mL
MIC (Nocardia asteoides): 50 µg/mL
MIC [8]: > 100 µg/mL
MIC (Mycobacterium phlei): > 100 µg/mL
MIC (Mycobacterium avium): > 100 µg/mL
MIC (Escherichia coli): > 100 µg/mL
MIC (Shigella dysenteriae): > 100 µg/mL
MIC (Salmonella typhimurium): > 100 µg/mL
MIC (Klebsiella pneumonaie): 50 µg/mL
MIC (Serratia marcescens): > 100 µg/mL
MIC (Pseudomonas aeruginosa): > 100 µg/mL
MIC (Brucella abortus): > 100 µg/mL
MIC (Candida albicans): > 100 µg/mL
MIC (Saccharomyces cerevisiae): > 100 µg/mL
MIC (Tolura rubra): > 100 µg/mL
MIC (Penicillium glaucum): > 100 µg/mL
MIC (Aspergillus niger): > 100 µg/mL
MIC (Aspergillus oryzae): > 100 µg/mL
MIC (Mucor mucedo): > 100 µg/mL
MIC [9]: > 100 µg/mL
